Converted amounts (≈) assume the structure as drawn.
Key:
Settings in all cases: 72 hours
leukemia cells (MOLT-4) = assay: MTT cytotoxicity assay, leukemia cells (MOLT-4); format: cell-based, human
Experimental: (§1) After 72 hours, the assay was terminated and percent cyotoxicities calculated.

lymphoma cells (U937) = assay: MTT cytotoxicity assay, lymphoma cells (U937); format: cell-based, human
Experimental: as §1

human prostate (DU145) = assay: MTT cytotoxicity assay, human prostate (DU145); format: cell-based
Experimental: as §1

human colon (HT29) = assay: MTT cytotoxicity assay, human colon (HT29); format: cell-based
Experimental: as §1

human larynx (HeP.2) = assay: MTT cytotoxicity assay, human larynx (HeP.2); format: cell-based
Experimental: as §1

human lung (L132) = assay: MTT cytotoxicity assay, human lung (L132); format: cell-based
Experimental: as §1

[1] = tested on: ovarian cancer cells (PA-1); assay: MTT cytotoxicity assay, ovarian cancer cells (PA-1); format: cell-based, human
Experimental: as §1

Compound	ED50 Leukemia MOLT-4 (leukemia cells (MOLT-4))	ED50 Lymphoma U937 (lymphoma cells (U937))	ED50 Prostate DU 145 (human prostate (DU145))	ED50 Colon HT-29 (human colon (HT29))	ED50 Larynx Hep. 2 (human larynx (HeP.2))	ED50 Lung L 132 (human lung (L132))	ED50 Ovary PA-I [1]
C=C(C)[C@@H]1CC[C@]2(C(=O)O)CC[C@]3(C)[C@H](CC[C@@H]4[C@@]5(C)CC[C@H](O)C(C)(C)[C@@H]5CC[C@]43C)[C@@H]12 [BA]	1.9 µg/mL (≈ 4.16 µM)	0.7 µg/mL (≈ 1.53 µM)	>10 µg/mL	1.8 µg/mL (≈ 3.94 µM)	>10 µg/mL	3.2 µg/mL (≈ 7.01 µM)	17 µg/mL (≈ 37.2 µM)
C=C(C)C1CCC2(C(=O)O)CCC3(C)C(CCC4C5(C)CCC(OS(C)(=O)=O)C(C)(C)C5CCC43C)C12 (centres unmarked) [Derivative 751]	0.65 µg/mL (≈ 1.22 µM)	>4 µg/mL	>10 µg/mL		7.0 µg/mL (≈ 13.1 µM)	5 µg/mL (≈ 9.35 µM)	
CC(C)C1CCC2(C(=O)O)CCC3(C)C(CCC4C5(C)CCC(OS(C)(=O)=O)C(C)(C)C5CCC43C)C12 (centres unmarked) [Derivative 789]	2.0 µg/mL (≈ 3.73 µM)	1.4 µg/mL (≈ 2.61 µM)	>10 µg/mL	1.4 µg/mL (≈ 2.61 µM)	>10 µg/mL	6.5 µg/mL (≈ 12.1 µM)	>4.0 µg/mL
CC(C)C1CCC2(C(=O)O)CCC3(C)C(CCC4C5(C)CCC(=NNC(=O)c6ccccc6)C(C)(C)C5CCC43C)C12 (centres unmarked) [Derivative 807]	1.0 µg/mL (≈ 1.74 µM)		>10 µg/mL		4.0 µg/mL (≈ 6.96 µM)	<0.5 µg/mL	1.7 µg/mL (≈ 2.96 µM)
CC(C)C1CCC2(C(=O)O)CCC3(C)C(CCC4C5(C)CCC(=NNc6ccc(F)cc6)C(C)(C)C5CCC43C)C12 (centres unmarked) [Derivative 829]	0.4 µg/mL (≈ 0.708 µM)	0.5 µg/mL (≈ 0.885 µM)	>10 µg/mL	1.3 µg/mL (≈ 2.3 µM)	>10 µg/mL	>4 µg/mL	0.5 µg/mL (≈ 0.885 µM)
CC(C)C1CCC2(C(=O)O)CCC3(C)C(CCC4C5(C)CCC(NNc6ccccc6)C(C)(C)C5CCC43C)C12 (centres unmarked) [Derivative 878]	1.6 µg/mL (≈ 2.92 µM)	0.4 µg/mL (≈ 0.729 µM)		1.75 µg/mL (≈ 3.19 µM)	2.25 µg/mL (≈ 4.1 µM)	0.8 µg/mL (≈ 1.46 µM)	3.5 µg/mL (≈ 6.38 µM)
COc1ccc(NNC2CCC3(C)C(CCC4(C)C3CCC3C5C(C(C)C)CCC5(C(=O)O)CCC34C)C2(C)C)cc1 (centres unmarked) [Derivative 912]	1.0 µg/mL (≈ 1.73 µM)	1.2 µg/mL (≈ 2.07 µM)	8.5 µg/mL (≈ 14.7 µM)	0.35 µg/mL (≈ 0.605 µM)	7.0 µg/mL (≈ 12.1 µM)	>4 µg/mL	
C=C(C)C1CCC2(C(=O)O)CCC3(C)C(CCC4C5(C)CCC(OC(=O)c6cc(F)cc(F)c6)C(C)(C)C5CCC43C)C12 (centres unmarked) [Derivative 935]	0.6 µg/mL (≈ 1.01 µM)	2.6 µg/mL (≈ 4.36 µM)	3.2 µg/mL (≈ 5.36 µM)	>10 µg/mL	>10 µg/mL	1.2 µg/mL (≈ 2.01 µM)	
CC(C)C1CCC2(C(=O)O)CCC3(C)C(CCC4C5(C)CCC(OC(=O)c6ccc(F)cc6F)C(C)(C)C5CCC43C)C12 (centres unmarked) [Derivative 937]	0.9 µg/mL (≈ 1.5 µM)	1.2 µg/mL (≈ 2 µM)	2.5 µg/mL (≈ 4.17 µM)	1.7 µg/mL (≈ 2.84 µM)	5.9 µg/mL (≈ 9.85 µM)	1.1 µg/mL (≈ 1.84 µM)	1.6 µg/mL (≈ 2.67 µM)
C=C(C)C1CCC2(C(=O)O)CCC3(C)C(CCC4C5(C)CCC(OC(=O)c6cccc(C(F)(F)F)c6)C(C)(C)C5CCC43C)C12 (centres unmarked) [Derivative 939]	1.4 µg/mL (≈ 2.23 µM)	5.7 µg/mL (≈ 9.06 µM)	>10 µg/mL	>10 µg/mL	4.0 µg/mL (≈ 6.36 µM)	2.7 µg/mL (≈ 4.29 µM)	>4.0 µg/mL
CC(C)C1CCC2(C(=O)O)CCC3(C)C(CCC4C5(C)CCC(OC(=O)c6cccc(C(F)(F)F)c6)C(C)(C)C5CCC43C)C12 (centres unmarked) [Derivative 940]	0.4 µg/mL (≈ 0.634 µM)	0.8 µg/mL (≈ 1.27 µM)	>4 µg/mL	>10 µg/mL	5.4 µg/mL (≈ 8.56 µM)	2.6 µg/mL (≈ 4.12 µM)	3.8 µg/mL (≈ 6.02 µM)
C=C(C)C1CCC2(C(=O)O)CCC3(C)C(CCC4C5(C)CCC(OC(=O)c6ccccc6C(F)(F)F)C(C)(C)C5CCC43C)C12 (centres unmarked) [Derivative 942]	0.5 µg/mL (≈ 0.795 µM)	2.2 µg/mL (≈ 3.5 µM)	>10 µg/mL	>10 µg/mL	10.0 µg/mL (≈ 15.9 µM)	4.0 µg/mL (≈ 6.36 µM)	>4.0 µg/mL
CC(C)C1CCC2(C(=O)O)CCC3(C)C(CCC4C5(C)CCC(OC(=O)c6ccccc6C(F)(F)F)C(C)(C)C5CCC43C)C12 (centres unmarked) [Derivative 943]	1.6 µg/mL (≈ 2.54 µM)	3.2 µg/mL (≈ 5.07 µM)	>4 µg/mL	>10 µg/mL	2.0 µg/mL (≈ 3.17 µM)	4.0 µg/mL (≈ 6.34 µM)	>4.0 µg/mL
CC(C)C1CCC2(C(=O)O)CCC3(C)C(CCC4C5(C)CCC(N=Cc6ccc(F)c(F)c6)C(C)(C)C5CCC43C)C12 (centres unmarked) [Derivative 998]	1.9 µg/mL (≈ 3.27 µM)	1.6 µg/mL (≈ 2.75 µM)	2.2 µg/mL (≈ 3.78 µM)	4.0 µg/mL (≈ 6.87 µM)	3.0 µg/mL (≈ 5.16 µM)	2.5 µg/mL (≈ 4.3 µM)	1.2 µg/mL (≈ 2.06 µM)
CC(C)C1CCC2(C(=O)O)CCC3(C)C(CCC4C5(C)CCC(NC(=O)CCl)C(C)(C)C5CCC43C)C12 (centres unmarked) [Derivative 1022]	1.8 µg/mL (≈ 3.37 µM)	5.5 µg/mL (≈ 10.3 µM)	>10 µg/mL	>10 µg/mL	3.5 µg/mL (≈ 6.55 µM)	4.7 µg/mL (≈ 8.8 µM)	0.6 µg/mL (≈ 1.12 µM)
COC(=O)COC(=O)C12CCC(C(C)C)C1C1CCC3C4(C)CCC(NC(C)=O)C(C)(C)C4CCC3(C)C1(C)CC2 (centres unmarked) [Derivative 1025]	1.0 µg/mL (≈ 1.75 µM)	>10 µg/mL	>4 µg/mL	>10 µg/mL	>10 µg/mL	3.2 µg/mL (≈ 5.6 µM)	>4.0 µg/mL
C=C(C)C1CCC2(C(=O)OCC(=O)OC)CCC3(C)C(CCC4C5(C)CCC(NCCO)C(C)(C)C5CCC43C)C12 (centres unmarked) [Derivative 1027]	2.0 µg/mL (≈ 3.5 µM)	4.5 µg/mL (≈ 7.87 µM)	5.7 µg/mL (≈ 9.97 µM)	7.2 µg/mL (≈ 12.6 µM)	4.2 µg/mL (≈ 7.34 µM)	7.0 µg/mL (≈ 12.2 µM)	>4.0 µg/mL
CC(C)C1CCC2(C(=O)O)CCC3(C)C(CCC4C5(C)CCC(N=Cc6ccc(F)cc6F)C(C)(C)C5CCC43C)C12 (centres unmarked) [Derivative 1065]	1.0 µg/mL (≈ 1.72 µM)	1.9 µg/mL (≈ 3.27 µM)	2.5 µg/mL (≈ 4.3 µM)	4.9 µg/mL (≈ 8.42 µM)	2.6 µg/mL (≈ 4.47 µM)	3.4 µg/mL (≈ 5.84 µM)	1.4 µg/mL (≈ 2.41 µM)
C=CC(=O)OC(=O)C12CCC(C(=C)C)C1C1CCC3C4(C)CCC(O)C(C)(C)C4CCC3(C)C1(C)CC2 (centres unmarked) [Derivative 1101]	1.9 µg/mL (≈ 3.72 µM)	1.2 µg/mL (≈ 2.35 µM)	>10 µg/mL	>10 µg/mL	1.6 µg/mL (≈ 3.13 µM)	1.7 µg/mL (≈ 3.33 µM)	3.5 µg/mL (≈ 6.85 µM)
C=CC(=O)OC(=O)C12CCC(C(C)C)C1C1CCC3C4(C)CCC(O)C(C)(C)C4CCC3(C)C1(C)CC2 (centres unmarked) [Derivative 1103]	1.9 µg/mL (≈ 3.71 µM)	1.0 µg/mL (≈ 1.95 µM)	>4 µg/mL	10.0 µg/mL (≈ 19.5 µM)	3.0 µg/mL (≈ 5.85 µM)	4.0 µg/mL (≈ 7.8 µM)	1.5 µg/mL (≈ 2.93 µM)
C=C(C)C1CCC2(C(=O)O)CCC3(C)C(CCC4C5(C)CCC(OC(=O)c6ccc(CCCCC)cc6)C(C)(C)C5CCC43C)C12 (centres unmarked) [Derivative 1104]	1.5 µg/mL (≈ 2.38 µM)	1.1 µg/mL (≈ 1.74 µM)	2.0 µg/mL (≈ 3.17 µM)	3.5 µg/mL (≈ 5.55 µM)	1.7 µg/mL (≈ 2.69 µM)	5.9 µg/mL (≈ 9.35 µM)	0.8 µg/mL (≈ 1.27 µM)
C=C(C)C1CCC2(C(=O)O)CCC3(C)C(CCC4C5(C)CCC(OC(=O)Cc6cc(OC)ccc6OC)C(C)(C)C5CCC43C)C12 (centres unmarked) [Derivative 1108]	1.5 µg/mL (≈ 2.36 µM)	1.0 µg/mL (≈ 1.58 µM)	>4 µg/mL	>10 µg/mL	1.7 µg/mL (≈ 2.68 µM)	4.6 µg/mL (≈ 7.25 µM)	1.3 µg/mL (≈ 2.05 µM)
C=C(C)C1CCC2(C(=O)O)CCC3(C)C(CCC4C5(C)CCC(OC(=O)c6ccc(CCCCCCC)cc6)C(C)(C)C5CCC43C)C12 (centres unmarked) [Derivative 1138]	2.0 µg/mL (≈ 3.03 µM)	1.1 µg/mL (≈ 1.67 µM)	>10 µg/mL	>10 µg/mL	2.0 µg/mL (≈ 3.03 µM)	7.0 µg/mL (≈ 10.6 µM)	1.3 µg/mL (≈ 1.97 µM)
C=C(C)C1CCC2(C(=O)O)CCC3(C)C(CCC4C5(C)CCC(OC(=O)C67CCC(C(C)C)C6C6CCC8C9(C)CC(Br)C(=O)C(C)(C)C9CCC8(C)C6(C)CC7)C(C)(C)C5CCC43C)C12 (centres unmarked) [Derivative 1155]	1.1 µg/mL (≈ 1.13 µM)	>10 µg/mL	>10 µg/mL	>10 µg/mL	>10 µg/mL	>10 µg/mL	>4.0 µg/mL
